We go through one molecule from US9304125B2, “Devices and methods for observing the cell division” (CENTRE NATIONAL DE LA RECHERCHE SCIENTIFIQUE, priority 2009, dated 2016).

“Also recorded” adds a separate entry of the source.

This assay has as its system cytokinetic ring. As to the kind of experiment: Cytokinetic ring closure of fission yeast in egg-cup wells, observed by fluorescence microscopy (rlc1-mCherry). Format: cell-based, Schizosaccharomyces pombe. The following applies: latrunculin A 2 μM; FIG. 5B.

Experimental: Here, they illustrate results with the myosin light chain encoded by rcl1 gene fused to mCherry.
The inventors incubated the cells with latrunculin A (2 μM), a drug known to bind monomeric actin and therefore preventing its polymerisation (Ayscough, 1998).
Standard methods were used for cell growth (Moreno et al., 1991). Briefly, cells were growing exponentially in EMM4S (Moreno et al., 1991), and experiments were conducted using the same medium in the chamber.
S. pombe strains successfully used in this study were the following: • JM 207 h+ rlc1 mcherry::natR ura- leu- ade-, J. Moseley • JW 1110 h+ kanMX6-Pmyo2-mYFP-myo2 ade6-M210 leu1-32 ura4-D18, J.-Q. Wu (Wu and Pollard, 2005) • PPG 5054, h+ leu1-32 ura4-D18 pax::KanMX6 leu1+::GFPpax+, Pilar Perez Lab (Pinar et al., 2008). • JW 977 h+ cdc15-mYFP-kanMX6 ade6-M210 leu1-32 ura4-D18, J.-Q. Wu (Wu and Pollard, 2005) • 519 h− bgs1Δ::ura4^+ Pbgs1^+::GFP-bgs1^+:leu1^+ leu1-32 ura4-Δ18 his3-Δ1, Pilar Perez (Cortes et al., 2002)
Cells were grown in exponential phase at 32° C. At about 0.5 optical density, the EMM4S medium was removed twice by centrifugation at 1000 g for 2 min followed by cells resuspension in a EMM-N medium (Moreno et al., 1991): cells were nitrogen starved at 32° C. for 5 hours. Cells were then pelleted with a 2 min centrifugation at 1000 g and they were resuspended in EMM4S. The egg cup surface (face up) was carefully placed on the top of a home-made plastic holder deposited in a 50 ml tube (adapted from the set-up used by (Allen et al., 2007)); 13 ml of EMM4S was poured in the tube. Cells were exposed to sonication 30 s (Branson 200, Ultrasonic Cleaner) to separate aggregated cells, and 1 ml of cell suspension was added to the 50 ml tube. Cells were then centrifuged at 500 g for 2 mn on the egg-cup surface resting on the special plastic holder. The egg cup surface was carefully removed from the holder and it was inserted in a home-made chamber (see FIG. 2D). The sample preparation was achieved by screwing a top metal piece onto the surface holder. […]

Turning to `C/C1=C/C(=O)O[C@@H]2C[C@@H](CC[C@H](C)/C=C\C=C\CC1)O[C@@](O)([C@@H]1CSC(=O)N1)C2` [latrunculin A], the “closure of the cytokinetic ring” value was “the closure was stopped”; the cytokinetic ring integrity entry is “the ring disassembled, and this led to the clustering of myosin into discrete patches; also recorded: disrupts the ring”.
